One data set deals with Human fibroblasts. Put plainly: UVA cytophotoprotection, anti-oxidative effect (MDA released, cell proteins, GSH) on UVA-irradiated human fibroblasts. Type of data set: cell-based. The settings on record: UVA 20 J/cm2; for Cell GSH/protein ratio: irradiated control = 78, not irradiated = 100; for MDA released: irradiated control = 100, not irradiated = 0; for Cell proteins: irradiated control = 107, not irradiated = 100. The protocol: The cytoprotection against UVA irradiation has been evaluated by a test on human fibroblasts because UVA radiation penetrates through the epidermis until the dermis where it induces oxidative stress, mainly by activation of photosensitising biological components, which catalyse the formation of ROS like anion superoxide, hydrogen peroxide and singlet oxygen, and lipoperoxydation of the cell membrane. These oxidative stress effects are evaluated in vitro due to measuring of the level of released MDA (malondialdehyde) and of intracellular GSH (reduced glutathion) (Morliere P., Moisan A., Santus R., Huppe G., Mazière J. C., Dubertret L.: UV-A induced lipid peroxydation in cultured human fibroblasts Biochim. Biophys. Acta (1991) 1084, 3:261-269).
The lipoperoxides formed after UVA irradiation undergo a decay into malondialdehyde which can form cross-links between many biological molecules like proteins with inhibition of enzymes and nucleic bases with risk of mutagenesis. Glutathione (GSH) is a peptide produced by the cells to protect them from oxidative stress or certain pollutants like mercury or lead. An increase in the GSH level enhances the activity of glutathion-S-transferase, a detoxification enzyme. GSH is evaluated according to the method of Hissin (Hissin P. J., Hilf R. A fluorometric method for determination of oxydised and reduced Glutathione in tissues. Analytical Biochemistry (1977) vol 74, pp 214-226).
Human fibroblasts were inoculated with growth medium (DMEM+FCS) and incubated 3 days at 37° C., with 5% CO2. The growth medium was then exchanged with medium containing an ingredient to be tested and incubated 2 days at 37° C. with CO2=5%. After an exchange of medium with balanced salt solution, the cell culture was irradiated by UVA 20 J/cm^2. Cell proteins and GSH were measured, and MDA released in the supernatant was determined spectrophotometrically.

The subject of another data set is Human keratinocytes. Kind of data set: UVB cytophotoprotection and anti-inflammatory effect (DNA, LDH and PGE2 released) on UVB-irradiated human keratinocytes. The format is cell-based. The conditions noted are these: UVB 50 mJ/cm2; for Keratinocytes DNA: irradiated control = 23, not irradiated = 100; for LDH released / PGE2 released: irradiated control = 100, not irradiated = 0. An excerpt: The arachidonic cascade is an important mechanism of cutaneous inflammation. This cascade may be induced by several factors, particularly by UVB irradiation. UVB induces the inflammatory response by activation of phospholipase A2 (PLA2), which results in a release of arachidonic acid from cell membranes. Then other specific enzymes (so called cyclo-oxygenases) transform arachidonic acid in active components called prostaglandin (PG) which are secreted from the cells. The fixation of certain prostaglandins (PGE2) on specific skin receptors is followed by redness and swelling on human skin. On cultured human cells, these UVB effects on cell's membrane are associated with a release of a cytoplasmic enzyme into the supernatant medium: Lactate Dehydrogenase or LDH.
Human keratinocytes were inoculated with growth medium (DMEM+FCS) and incubated 3 days at 37° C. and 5% CO2. The growth medium was then exchanged with balanced salt solution containing the ingredient to be tested, the cell culture was irradiated by UVB 50 mJ/cm^2 (DUKE GL40E lamp). After 1 day of incubation at 37° C. with 5% CO2, LDH and PGE2 released in the medium were determined, and cellular DNA was measured using a fluorescent probe to determine the cell viability.

Another data set concerns the target Lipoxygenase. Kind of data set: Anti-free radical activity: superoxide anions released by lipoxygenase, Luminol probe. The format is biochemical. The conditions noted are these: mean of 2 assays; lipoxygenase with unsaturated fatty acid substrate. The procedure: The anti-free radical (anti-FR) activity has been evaluated by biochemical tests to address the potential for scavenging superoxide anion (O2°).
Lipoxygenase was incubated with a specific substrate (unsaturated fatty acid) and the flavonoid esters. Then the rate of released superoxide anions was determined using Luminol luminescent probe to calculate the IC50 (mean of 2 assays).

Data set [1] is described as follows: Solubility in hydrophilic and lipophilic solvent by HPLC. The format is physicochemical. The settings on record: stirring 1 hour at room temperature; for solubility at 1 h: thermodynamic from solid. The procedure: The solubility was determined by HPLC measurement after stirring during 1 hour at room temperature.

3 molecules from patent US20070184098A1, “Esters of flavonoids with w-substituted c6-c22 fatty acids” (priority 2003, published 2007) can be followed below.

Where “and” joins values, the source holds several entries; their conditions need not be identical. Identical values can stand only once. Like-named read-outs stand apart in the source and are kept apart here.

Take `CC1OC(OCC2OC(Oc3c(-c4ccc(O)c(O)c4)oc4cc(O)cc(O)c4c3=O)C(O)C(O)C2O)C(O)C(O)C1OC(=O)CCCCCCCC(=O)O` (stereo not drawn) [Rutin azelaiate]: in the data set with Human fibroblasts (dose 0.001 % w/v), the “Cell GSH/protein ratio” value is recorded as 67 % against control, the MDA released turned out to be 78 % against control and the Cell proteins is on record as 144 % against control. For the same molecule, in the data set on Human fibroblasts (dose 0.003 % w/v), the “Cell GSH/protein ratio” value is on record as 64 % against control, the MDA released is reported as 64 % against control and the Cell proteins was 165 % against control. Further, in the data set on Human keratinocytes (dose 0.003 % w/v), the “Keratinocytes DNA” value turned out to be 51 % against control, the LDH released is recorded as 45 % against control and the PGE2 released worked out at 28 % against control. For the same molecule, in the data set with Human keratinocytes (dose 0.01 % w/v), the “Keratinocytes DNA” value amounted to 53 % against control, the LDH released amounted to 27 % against control and the PGE2 released was 19 % against control. Further, the “IC50 (w/v), released superoxide anions” value at Lipoxygenase is on record as 0.0025 w/v.
In the case of `C[C@@H]1O[C@@H](OC[C@H]2O[C@@H](Oc3c(-c4ccc(O)c(O)c4)oc4cc(O)cc(O)c4c3=O)[C@H](O)[C@@H](O)[C@@H]2O)[C@H](O)[C@H](O)[C@H]1O` [Rutin, reference compound], the “Cell GSH/protein ratio” value in the data set on Human fibroblasts (dose 0.003 % w/v) is reported as 72 % against control; in the data set with Human fibroblasts (dose 0.01 % w/v), 71 % against control. For the same molecule, the MDA released in the data set with Human fibroblasts (dose 0.003 % w/v) turned out to be 79 % against control; in the data set with Human fibroblasts (dose 0.01 % w/v), 72 % against control. Moreover, the Cell proteins with Human fibroblasts (dose 0.003 % w/v) is listed as 126 % against control; in the data set with Human fibroblasts (dose 0.01 % w/v), 128 % against control. Besides, the results for the “Keratinocytes DNA” value in the data set on Human keratinocytes (dose 0.03 % w/v) and in the data set on Human keratinocytes (dose 0.1 % w/v) were 69 % against control and 73 % against control, respectively. Moreover, the values for the LDH released in the data set on Human keratinocytes (dose 0.03 % w/v) and with Human keratinocytes (dose 0.1 % w/v) were 17 % against control and 18 % against control, respectively. Besides, the PGE2 released in the data set on Human keratinocytes (dose 0.03 % w/v) was 0 % against control; in the data set with Human keratinocytes (dose 0.1 % w/v), 10 % against control. In addition, the solubility at 1 h in data set [1] (butylene glycol, organic solvent or mixture, read-out: Solubility in butylene glycol) was 22600 µg/mL and 37100 µM; in data set [1] (octyl-dodecanol, oil or lipid, read-out: Solubility in octyl-dodecanol), 30 µg/mL and 50 µM; in data set [1] (water, read-out: Solubility in water), 160 µg/mL and 270 µM.
As to `CC1OC(OCC2OC(Oc3c(-c4ccc(O)c(O)c4)oc4cc(O)cc(O)c4c3=O)C(O)C(O)C2O)C(O)C(O)C1OC(=O)CCCCCCCCCCS` (stereo not drawn) [Rutin 11-mercaptoundecanoate], in the data set with Human fibroblasts (dose 0.001 % w/v), the “Cell GSH/protein ratio” value came to 131 % against control, the MDA released is given as 34 % against control and the Cell proteins amounted to 94 % against control. Besides, in the data set on Human fibroblasts (dose 0.003 % w/v), the “Cell GSH/protein ratio” value was 283 % against control, the MDA released amounted to 0 % against control and the Cell proteins is 89 % against control. In the data set with Human keratinocytes (dose 0.0001 % w/v), the “Keratinocytes DNA” value came to 44 % against control, the LDH released was 75 % against control and the PGE2 released turned out to be 26 % against control. In the data set with Human keratinocytes (dose 0.0003 % w/v), the “Keratinocytes DNA” value was 41 % against control, the LDH released was 92 % against control and the PGE2 released worked out at 12 % against control. Further, in data set [1], the “Solubility in butylene glycol” value is 54.5 g/L and 67.2 mM; the Solubility in octyl-dodecanol is 0.15 g/L and 0.19 mM.
